Values joined by “and” are separate entries in the source; they are usually repeats but may differ in a detail not shown here. Identical values can stand only once.
Assays:
[1] = tested on: HEK-293 EV cells; test: Calcium 5 dye [Ca]i assay in HEK-293 empty vector (EV) cells; type: cell-based, human; details: 10 µM; HEK-293 EV cells; percentage of predrug baseline
Description: (§1) The cells were incubated in a 5% CO2 humidified atmosphere at 37 °C. Upon reaching approximately 90% confluence in 75 cm^2 flasks, they were trypsinized and transferred to poly-D-lysine coated 96-well plates (Corning, Castle Hill, NSW, Australia) in L-15 medium supplemented with 1% FBS, 100 U penicillin and 100 µg streptomycin ml^−1 (1% P/S), and 15 mM glucose (80 µL volume per well). After an overnight incubation (maximum of 16 h) in humidified room air at 37 °C, TRPV1 and TRPA1 receptor expression was induced 4 h before experimentation by adding to each well 10 µL tetracycline solution to a final concentration of 1 µg ml^−1.
Intracellular calcium [Ca]i levels were assessed using the calcium 5 kit from Molecular Devices (# R8186, Sunnyvale, CA, USA) on a FlexStation 3 Microplate Reader (Molecular Devices, Sunnyvale, CA, USA). […] 90 µL of the dye were loaded into each well of the plate and incubated for 1 h before reading in the FlexStation 3 at 37 °C. […] After 1 min of baseline recording, 20 µL of the drug, dissolved in HBSS with 1% dimethyl sulfoxide (DMSO) (cat # D2650; Sigma-Aldrich, Melbourne, Australia) was added (final DMSO concentration was 0.1% in well).
(§2) The response to agonists was expressed as a percentage change from the average baseline measurement taken for 60s before adding drug. Changes in fluorescence resulting from the addition of solvent were subtracted before normalization to baseline. Concentration–response curves (CRC), Emax and EC50 values were determined using a three-parameter logistic equation (GraphPad Prism, San Diego, CA, USA). […] Potencies were expressed as pEC50, which is the negative log of EC50 in moles per litre (Molar). Where appropriate, unpaired Student’s t-test were used to compare the responses of individual compounds in different conditions, while a one-way ANOVA followed by Dunnett’s multiple comparisons test was used to assess potential differences in responses elicited by a range of compounds. P < 0.05 was considered statistically significant.

[2] = target: T1, human TRPV1 (Homo sapiens, UniProt Q8NER1); test: Calcium 5 dye [Ca]i assay in HEK-293 Flp-In T-REx cells expressing TRPV1 (agonist response); type: cell-based; details: for Elevation of [Ca]i in HEK-293 TRPV1 cells compared with HEK-293 EV cells / Change of Ca5 fluorescence, Mean ± SEM, TRPV1 (10 µM): 10 µM; for Change of Ca5 fluorescence, Mean ± SEM, TRPV1 (10 µM): percentage of predrug baseline; for Maximal TRPV1 response compared with the highest concentration of capsaicin: 30 µM vs capsaicin 10 µM; for Change in Ca5 fluorescence, individual experiments (CRC raw data): TRPV1 cells; for Emax ± SEM % TRPV1 (30 µM): highest tested concentration (30 µM) or derived from concentration-response curves (DHEA, AEA, NADA, capsaicin)
T1 construct: Life Technologies (cells); host or cells: Flp-In T-REx HEK-293
Description: as §1
(§3) Intracellular calcium [Ca]i levels were assessed using the calcium 5 kit from Molecular Devices (# R8186, Sunnyvale, CA, USA) on a FlexStation 3 Microplate Reader (Molecular Devices, Sunnyvale, CA, USA). […] Probenecid (cat # 50027; Biotium) which helps to prevent expulsion of calcium indicator from the cells was added to a final concentration of 1.25 mM. 90 µL of the dye were loaded into each well of the plate and incubated for 1 h before reading in the FlexStation 3 at 37 °C. Fluorescence was recorded every 2 s (λ excitation = 485 nm, λ emission = 525 nm) for 5 min. After 1 min of baseline recording, 20 µL of the drug, dissolved in HBSS with 1% dimethyl sulfoxide (DMSO) (cat # D2650; Sigma-Aldrich, Melbourne, Australia) was added (final DMSO concentration was 0.1% in well).
as §2

[3] = target: T2, human TRPA1 (Homo sapiens, UniProt O75762); test: Calcium 5 dye [Ca]i assay in HEK-293 Flp-In T-REx cells expressing TRPA1 (agonist response); type: cell-based; details: for Elevation of [Ca]i in HEK-293 TRPA1 cells compared with HEK-293 EV cells: 10 µM (cinnamaldehyde 300 µM); for Change of Ca5 fluorescence, Mean ± SEM, TRPA1 (10 µM): HEK-293 TRPA1 cells, percentage of predrug baseline; for TRPA1 activation at the highest concentration tested / TRPA1 response compared with the highest concentration of cinnamaldehyde (300 µM) / TRPA1 response, Mean± SEM (N): 30 µM; for TRPA1 response, Mean± SEM (N): one-way ANOVA comparison with cinnamaldehyde 300 µM; for [Ca]i response (change in fluorescence), individual replicates: sheet Figure 3(E); for Emax ± SEM % TRPA1 (30 µM): highest tested concentration (30 µM) or derived from concentration-response curves (cinnamaldehyde); for Change in Ca5 fluorescence, individual experiments (CRC raw data): TRPA1 cells
T2 construct: Life Technologies (cells); host or cells: Flp-In T-REx HEK-293
Description: as §1, §3, §2

T2 sequence (O75762 whole entry): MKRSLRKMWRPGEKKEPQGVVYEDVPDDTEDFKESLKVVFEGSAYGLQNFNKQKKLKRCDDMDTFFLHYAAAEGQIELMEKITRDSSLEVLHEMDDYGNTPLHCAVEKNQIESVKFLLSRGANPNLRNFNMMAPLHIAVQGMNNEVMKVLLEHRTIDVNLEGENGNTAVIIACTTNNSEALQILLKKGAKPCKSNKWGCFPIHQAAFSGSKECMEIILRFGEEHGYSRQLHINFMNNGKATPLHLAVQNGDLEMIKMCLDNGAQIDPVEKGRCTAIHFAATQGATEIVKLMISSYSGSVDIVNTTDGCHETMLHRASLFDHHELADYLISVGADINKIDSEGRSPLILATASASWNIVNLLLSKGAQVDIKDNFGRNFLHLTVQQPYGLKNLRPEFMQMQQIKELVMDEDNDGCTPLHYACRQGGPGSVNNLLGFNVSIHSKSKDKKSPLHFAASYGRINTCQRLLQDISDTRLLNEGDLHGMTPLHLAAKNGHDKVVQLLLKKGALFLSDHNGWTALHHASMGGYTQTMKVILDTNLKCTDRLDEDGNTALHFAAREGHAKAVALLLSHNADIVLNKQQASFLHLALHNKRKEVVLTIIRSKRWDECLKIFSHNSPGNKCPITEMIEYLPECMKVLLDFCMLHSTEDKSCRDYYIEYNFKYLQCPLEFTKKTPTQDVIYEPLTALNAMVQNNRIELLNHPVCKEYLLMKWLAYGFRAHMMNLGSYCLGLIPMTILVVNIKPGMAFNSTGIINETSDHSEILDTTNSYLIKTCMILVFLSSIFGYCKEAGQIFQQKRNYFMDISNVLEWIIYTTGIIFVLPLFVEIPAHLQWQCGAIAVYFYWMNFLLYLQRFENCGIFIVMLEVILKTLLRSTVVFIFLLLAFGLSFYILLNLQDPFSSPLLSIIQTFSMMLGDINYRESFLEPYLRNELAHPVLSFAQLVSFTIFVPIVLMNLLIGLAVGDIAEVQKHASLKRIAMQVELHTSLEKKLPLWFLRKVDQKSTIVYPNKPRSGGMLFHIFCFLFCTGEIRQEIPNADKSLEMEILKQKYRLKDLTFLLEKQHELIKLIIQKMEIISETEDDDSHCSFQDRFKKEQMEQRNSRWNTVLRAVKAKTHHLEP
T1 sequence (Q8NER1 whole entry): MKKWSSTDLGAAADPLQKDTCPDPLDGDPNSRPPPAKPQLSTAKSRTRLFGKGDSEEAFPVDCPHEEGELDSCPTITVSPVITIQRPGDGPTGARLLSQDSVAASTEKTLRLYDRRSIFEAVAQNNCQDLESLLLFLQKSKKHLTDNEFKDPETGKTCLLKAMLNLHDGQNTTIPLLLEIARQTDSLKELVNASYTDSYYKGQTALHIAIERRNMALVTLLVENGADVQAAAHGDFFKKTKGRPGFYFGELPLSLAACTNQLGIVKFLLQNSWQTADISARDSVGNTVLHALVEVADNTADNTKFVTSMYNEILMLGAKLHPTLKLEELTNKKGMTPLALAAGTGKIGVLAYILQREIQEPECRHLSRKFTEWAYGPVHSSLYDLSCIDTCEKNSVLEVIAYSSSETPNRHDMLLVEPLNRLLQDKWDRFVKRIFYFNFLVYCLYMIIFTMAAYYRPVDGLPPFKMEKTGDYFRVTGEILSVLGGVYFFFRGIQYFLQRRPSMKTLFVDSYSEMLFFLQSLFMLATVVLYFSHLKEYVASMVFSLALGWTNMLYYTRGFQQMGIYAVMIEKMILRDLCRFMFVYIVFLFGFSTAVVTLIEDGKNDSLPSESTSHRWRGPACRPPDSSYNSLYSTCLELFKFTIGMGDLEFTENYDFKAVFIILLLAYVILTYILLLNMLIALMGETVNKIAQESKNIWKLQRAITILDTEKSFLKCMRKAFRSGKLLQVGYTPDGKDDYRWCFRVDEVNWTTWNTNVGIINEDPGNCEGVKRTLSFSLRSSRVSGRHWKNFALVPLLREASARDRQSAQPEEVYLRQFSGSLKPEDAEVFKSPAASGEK

Structure (SMILES)	Change of Ca5 fluorescence, Mean ± SEM, EV (10 µM) [1]	Elevation of [Ca]i in HEK-293 TRPV1 cells compared with HEK-293 EV cells [2]	Change of Ca5 fluorescence, Mean ± SEM, TRPV1 (10 µM) ([2]; HEK-293 TRPV1 cells)	Maximal TRPV1 response compared with the highest concentration of capsaicin [2]	Change in Ca5 fluorescence, individual experiments (CRC raw data) ([2]; log concentration -4.52288 (M))	Change in Ca5 fluorescence, individual experiments (CRC raw data) ([2]; log concentration -5 (M))	Change in Ca5 fluorescence, individual experiments (CRC raw data) ([2]; log concentration -5.52288 (M))	Change in Ca5 fluorescence, individual experiments (CRC raw data) ([2]; log concentration -6 (M))	Change in Ca5 fluorescence, individual experiments (CRC raw data) ([2]; log concentration -6.52288 (M))	Change in Ca5 fluorescence, individual experiments (CRC raw data) ([2]; log concentration -7 (M))	Elevation of [Ca]i in HEK-293 TRPA1 cells compared with HEK-293 EV cells [3]	Change of Ca5 fluorescence, Mean ± SEM, TRPA1 (10 µM) [3]	TRPA1 activation at the highest concentration tested [3]	TRPA1 response compared with the highest concentration of cinnamaldehyde (300 µM) [3]	TRPA1 response, Mean± SEM (N) [3]	Emax ± SEM % TRPV1 (30 µM) [2]	Emax ± SEM % TRPA1 (30 µM) [3]	Change in Ca5 fluorescence, individual experiments (CRC raw data) ([3]; log concentration -4.52288 (M))	Change in Ca5 fluorescence, individual experiments (CRC raw data) ([3]; log concentration -5 (M))	Change in Ca5 fluorescence, individual experiments (CRC raw data) ([3]; log concentration -5.52288 (M))	further results
CCCCC/C=C\C/C=C\C/C=C\C/C=C\CCCC(=O)NCCO [AEA, anandamide]	10 ± 2%	significantly greater	188 ± 36 %	did not differ	110.333 and 353.13 and 181.656 and 93.5107 and 312.513 and 324.288	107.669 and 250.336 and 142.845 and 78.9426 and 274.449 and 272.34	104.24 and 119.191 and 18.6933 and 67.9069 and 43.3725 and 39.8495	85.0507 and 18.1779 and 2.315 and 21.1299 and 4.82 and -0.1525	25.9314 and 10.5855 and 2.141 and 2.529 and 1.6051 and -0.1939	9.794 and 11.1798 and 5.889 and 1.561 and 3.7 and 2.135	did not produce a change	78 ± 40%	activated TRPA1	significantly smaller	206 ± 60	–	–	–	–	–	EC50 [2]: 7.94 µM; Emax at 30 µM ([2]; HEK293, read-out: Emax ± SEM % TRPV1 (30 µM)): 304 ± 55%; Emax at 30 µM ([3]; HEK293, read-out: Emax ± SEM % TRPA1 (30 µM)): 206 ± 60%; [Ca]i response (change in fluorescence), individual replicates ([3]; concentration -4.52288 (log)): 380.839 and 400.035 and 86.0795 and 138.88 and 106.55 and 121.01; [Ca]i response (change in fluorescence), individual replicates ([3]; concentration -5 (log)): 270.188 and 95.8276 and 43.3617 and 6.8753 and 19.4528 and 34.7169; [Ca]i response (change in fluorescence), individual replicates ([3]; concentration -5.52288 (log)): 11.1594 and 5.44 and 3.581 and 5.875; [Ca]i response (change in fluorescence), individual replicates ([3]; concentration -6 (log)): 11.3796 and 3.6077 and 1.689 and 3.893 and 4.817 and 2.419; [Ca]i response (change in fluorescence), individual replicates ([3]; concentration -6.52288 (log)): 9.429 and 4.648 and 1.238 and 3.414; [Ca]i response (change in fluorescence), individual replicates ([3]; concentration -7 (log)): 11.2147 and 3.27 and 3.337 and 2.558
CC/C=C\C/C=C\C/C=C\C/C=C\C/C=C\C/C=C\CCC(=O)NCCO [DHEA, docosahexaenoyl ethanolamide]	10 ± 3%	significantly greater	266 ± 51 %	did not differ	421.157 and 266.746 and 225.074 and 238.504 and 226.816 and 459.662	358.299 and 237.035 and 372.804 and 59.1046 and 202.763 and 364.608	143.051 and 24.824 and 40.8645 and 14.285 and 22.6333 and 69.1812	82.6736 and 2.152 and 3.016 and 2.309 and 4.337 and 4.334	7.224 and 2.186 and 3.68 and 2.567 and 2.837 and 6.478	5.718 and 2.642 and 2.583 and 2.209 and 5.355 and 1.543	significantly greater	107 ± 50 %	activated TRPA1	did not differ	335± 60	439 ± 81%	335 ± 35%	349.992 and 313.567 and 315.432 and 199.601 and 366.143 and 464.813	252.775 and 33.0558 and 3.468 and 15.2698 and 63.0111 and 272.344	2.533 and 3.173 and 1.452 and 10.0203 and 10.0547 and 73.8394	pEC50 ± SEM TRPV1 ([2]; HEK-293 TRPV1 cells, EC50 in molar): 5 ± 0.2; Change in Ca5 fluorescence, individual experiments (CRC raw data) ([3]; log concentration -6 (M)): 2.6845 and 3.9598 and 1.663 and 5.882 and 4.143 and 4.307; Change in Ca5 fluorescence, individual experiments (CRC raw data) ([3]; log concentration -6.52288 (M)): 2.976 and 11.5941 and 1.922 and 8.318 and 8.221 and 6.083; Change in Ca5 fluorescence, individual experiments (CRC raw data) ([3]; log concentration -7 (M)): 8.586 and 11.8101 and 8.8764 and 6.208 and 4.123 and 2.766
CC/C=C\C/C=C\C/C=C\C/C=C\C/C=C\CCCC(=O)NCCO [EPEA, eicosapentaenoyl ethanolamide]	3 ± 1%	did not produce a notable change	15 ± 8%	–	12.8698 and 124.435 and 117.092 and 13.2242 and 28.647 and 8.814	6.443 and 53.2228 and 9.9712 and 11.9185 and 2.5776 and 3.793	5.664 and 10.8694 and 3.209 and 12.2234 and 1.072 and 3.982	2.913 and 5.488 and 1.312 and 9.151 and 2.704 and 1.489	3.773 and 2.311 and 2.08 and 9.31 and 0.4729 and 1.052	7.0578 and 1.12 and 6.0854 and 9.074 and 2.61 and 2.864	did not produce a change	50 ± 40%	activated TRPA1	significantly smaller	274± 60	51 ± 22%	274 ± 27%	345.33 and 330.592 and 234.198 and 185.482 and 229.324 and 316.639	250.67 and 8.984 and 4.299 and 4.23 and 22.2267 and 8.362	6.789 and 4.391 and 2.799 and 3.328 and 5.534 and 8.248	TRPV1 response, Mean± SEM (N) ([2]; 30 µM, one-way ANOVA comparison with capsaicin 10 µM): 51± 56; Change in Ca5 fluorescence, individual experiments (CRC raw data) ([3]; log concentration -6 (M)): 2.3186 and 6.477 and 1.9747 and 2.489 and 1.415 and 7.402; Change in Ca5 fluorescence, individual experiments (CRC raw data) ([3]; log concentration -6.52288 (M)): 2.468 and 7.816 and 1.613 and 1.7019 and 8.366 and 8.252; Change in Ca5 fluorescence, individual experiments (CRC raw data) ([3]; log concentration -7 (M)): 1.245 and 5.751 and 2.391 and 4.163 and 4.153 and 8.202

— paper PMC11949107, “Polyunsaturated fatty acids and their endocannabinoid-related metabolites activity at human TRPV1 and TRPA1 ion channels expressed in HEK-293 cells” (PeerJ, 2025)
